Test results as given in US20150011492A1, “ANTI-RESTENOSIS COMPOSITIONS AND METHODS” (WISCONSIN ALUMNI RESEARCH FOUNDATION, priority 2013, published 2015).
“Also recorded” adds a separate entry of the source.

Experiments:
[1] = system: balloon-injured rat carotid arteries; test: Rat carotid balloon angioplasty model, perivascular drug delivery in pluronic gel; assay type: in vivo, Male Sprague-Dawley rats
Experimental: Balloon injury of the left common carotid artery was performed in Male Sprague-Dawley rats (300-350 g) according to the method described previously (Kundi et al., Cardiovasc Res. 84(2):326-35 (2009). Briefly, after induction of anesthesia with isoflurane, a 2F balloon catheter was inserted through the left external carotid artery into the common carotid and insufflated three times at 2 atm of pressure. The external carotid artery was then ligated, and blood flow was resumed through the common and internal carotid arteries. For perivascular drug delivery, resveratrol (500 μg) or halofuginone (30 μg) or DMSO dissolved in 200 μL of 25% F127 pluronic gel (Sigma-Aldrich) in PBS was evenly applied, immediately after reestablishment of flow, around the injured segment of the carotid artery (5 animals in each group). The pluronic gel is a biodegradable polymer that is soluble in water at 4° C. but becomes a gel when in contact with tissues at 37° C. (Ji et al., Circ. Res. 100:1579-88 (2007)). Rats were euthanized 14 days after injury, and the common carotid arteries were collected and fixed in 4% paraformaldehyde overnight for embedding in paraffin.
For morphometric analysis of intimal hyperplasia, ten evenly spaced sections through each injured carotid artery were stained using routine hematoxylin and eosin (H&E) and images were collected with light microscopy. Intimal and medial areas and circumference were determined by measuring the internal elastic lamina (IEE) and external elastic lamina (EEL) for each section using the ImageJ software (National Institutes of Health). Kundi et al., Cardiovasc. Res. 84:326-35 (2009); Kingston et al., Circulation 108:2819-25 (2003). The difference in intimal hyperplasia between the compound treatment group and the control group was analyzed with the Student t-test (P<0.05).
To mark endothelial cells, immunohistochemistry using an anti-CD31 antibody was performed on rat carotid sections based on our published methods. Suwanabol et al., Am J Physiol Heart Circ Physiol. 302:H2211-19 (2012); Kundi et al., Cardiovasc. Res. 84:326-35 (2009); Si et al., Arterioscler. Thromb. Vasc. Biol. 32:943-54 (2012). Briefly, the carotid sections were incubated with the anti-CD31 antibody (Santa Cruz Biotechnology) overnight at 4° C., followed by rhodamine-conjugated secondary antibody (DAKO) for 60 minutes at room temperature. Antibody controls included species-matched IgG. Images were taken with a fluorescence microscope.
Balloon angioplasty was performed in the left common carotid artery of male Sprague-Dawley rats. Immediately after resuming the blood flow, idarubicin (110 μg) or DMSO control dissolved in 300 μL of 25% F127 pluronic gel was applied around the injured artery. At 14 days after injury, arteries were collected and cross-sections were prepared and H&E stained. Intimal and medial areas, and circumference were determined by measuring the internal elastic lamina (IEE) and external elastic lamina (EEL) for each section using the ImageJ software. The difference in intimal hyperplasia (ratio of intima to media) between the idarubicin treatment group and the control group was analyzed with the Student t-test (P<0.05). Immunostaining of CD31, an endothelial cell marker, was performed on the sections to assess re-endothelialization.
Using the carotid artery sections collected on day 14 following angioplasty, we performed immunostaining for CD31 (FIGS. 10A-C), a commonly used marker for assessment of the endothelium, in a rat carotid injury model at 14 days. Briefly, a goat anti-CD31 primary antibody (R&D Sytems, 1:150) was incubated with the sections for 1 hour followed by an incubation with a biotinylated rabbit-anti-goat secondary antibody for 30 minutes. Immunostaining of CD31 was then visualized by using streptavidin-HRP and DAB.

[2] = system: primary human aortic smooth muscle cells (HuAoSMCs); test: AlamarBlue cell viability assay of HuAoSMC proliferation (automated HTS); assay type: cell-based
Text: Alamar Blue was purchased from Invitrogen (Carlsbad, Calif.). Cell Titer Glo was from Promega (Madison, Wis.). Primary human aortic smooth muscle cells (HuAoSMCs) and primary human aortic endothelial cells (HuAoECs) at passage 3 were purchased from Lonza; their respective optimal culture media (SmGM-2 and EGM-2) were from the same commercial source. Cells were used at passage 5 after expansion. Trypsin/EDTA solution was from Clonetics (Walkersville, Md.); and DPBS was from Gibco (Invitrogen, Carlsbad, Calif.). Microtiter tissue 96-well culture plates with transparent flat-bottoms and black-walled sides were from Costar (Corning, N.Y.). Resveratrol and idarubicin were products of Sigma-Aldrich (St. Louis, Mo.). […]
Freshly collected HuAoSMCs (passage 5) were counted ([…]) by Cellometer AutoT4 (Nexelon Bioscience), and dispensed using Microflo Select (BioTek) to a final density of 2700 cells/[…]/well in the SmGM-2 medium in a 96-well plate. […] Cell growth/proliferation was monitored by reading fluorescence from the AlamarBlue® cell viability reagent (Invitrogen). […] After incubation with resveratrol for 72 hours, AlamarBlue reagent was added using Matrix Hydra (Thermo-Fisher) and incubated with cells for another 24 hours, and fluorescence was then determined using a Safir2 plate reader (Tecan, excitation/fluorescence: 530 nm/590 nm, bandwidth: 15 nm). […]

[3] = system: human SMCs; test: CellTiter-Glo luminescent cell viability assay, SMCs; assay type: cell-based; details: 200 nM
Experimental: Freshly collected HuAoSMCs (passage 5) were counted ([…]) by Cellometer AutoT4 (Nexelon Bioscience), and dispensed using Microflo Select (BioTek) to a final density of 2700 cells/[…]/well in the SmGM-2 medium in a 96-well plate. After a 24 hour incubation to allow cell attachment, […] of DMSO (vehicle) or […] of resveratrol (a known SMC growth inhibitor) stock in DMSO was robotically transferred using Biomek FX (Beckman) from a resveratrol stock plate into cell culture (final […] resveratrol). DMSO and resveratrol were added into alternate columns of wells (8 wells per column). Cell growth/proliferation was monitored by reading fluorescence from the AlamarBlue® cell viability reagent (Invitrogen). See Antczak et al., J. Biomol. […] After incubation with resveratrol for 72 hours, AlamarBlue reagent was added using Matrix Hydra (Thermo-Fisher) and incubated with cells for another 24 hours, and fluorescence was then determined using a Safir2 plate reader (Tecan, excitation/fluorescence: 530 nm/590 nm, bandwidth: 15 nm). The data from 40 wells of vehicle and 40 wells of resveratrol treatments were analyzed for assessment of well-well consistency in the assay. […] It was determined that reading Alamar Blue fluorescence 24 hours after incubation reduced variance compared to reading after shorter incubation (e.g., 4 hours). […]

[4] = system: human ECs; test: CellTiter-Glo luminescent cell viability assay, ECs; assay type: cell-based; details: 200 nM
Text: For human SMCs, cell densities ranging from about 1,000 cells per well to about 5,000 cells per well were aliquoted into 96-well plates and cultured in the SmGM-2 medium (Lonza CC-3182) with 5% serum.
This robust well-to-well consistency achieved by our experimental system is better reflected by a Z′ value of 0.63. […] See, e.g., Tomasini-Johansson et al., J. Intl. Soc. Matrix Biol. (2012); Zhang et al., J. Biomol. Screening 4:67-73 (1999); Patel et al., PloS One 7:e36594 (2012). In parallel experiments, a CellTiter-Glo® luminescent cell viability assay (Cat. #7570, Promega), which quantifies ATP levels in cell lysates, was evaluated as an additional and more sensitive orthologous assay for cell number. Sachsenmeier et al., PLoS One 17:993-8 (2012). Using the CellTiter-Glo® assay, Rapamycin which is used in drug-eluting stents at 200 nM produced >50% inhibition of both human SMCs and ECs with Z′ values of 0.56 to 0.75 respectively (FIG. 2). In addition, CellTiter-Glo® assays using resveratrol for both SMCs and ECs also produced high Z′ values (>0.7) (data not shown). Curve fitting was performed with the Prism software (GraphPad).

[5] = system: HuAoSMCs; test: Dose response proliferation assay, HuAoSMCs (96-well plate); assay type: cell-based, human
Experimental: FIGS. 5A-B present comparative dose responses of HuAoSMCs and HuAoECs for idarubicin (A) and resveratol (B).
Cryo-protected frozen HuAoSMCs and HuAoECs (Lonza, passage 3) were thawed and cultured in their respective media that are optimized for cell growth by the manufacturer. HuAoSMCs (“SMCs”) were grown in the SmGM-2 medium containing 5% FBS, and HuAoECs (“ECs”) in the EGM-2 medium containing 2% FBS in a humidified incubator at 37° C. with 5% CO2.

[6] = system: primary human aortic endothelial cells (HuAoECs); test: Counter-screen / dose response proliferation assay, HuAoECs
[7] = system: balloon-injured rat carotid arteries; test: Rat carotid balloon angioplasty model, perivascular drug delivery in pluronic gel; assay type: in vivo, Male Sprague-Dawley rats; remark: listed apart in the source
[8] = halofuginone 30 μg in 200 μL pluronic gel, 14 days
[9] = Example 5, local perivascular application, day 14 following angioplasty, 5 rats
[10] = idarubicin applied locally around injured artery, day 14
[11] = relative to controls not contacted to idarubicin formulation
[12] = medium dose 0.5 mg/mL in pluronic gel

O=C(CC1NCCCC1O)Cn1cnc2cc(Br)c(Cl)cc2c1=O (stereo not shown) [halofuginone]
effect on intimal hyperplasia, in words [1, 8]: inhibits intimal hyperplasia | effect on re-endothelialization (CD31 staining), in words [1, 8]: not re-endothelialization; also recorded: not affected | reduction of intimal hyperplasia (intima/media ratio) ([1]; halofuginone 30 μg in 200 μL pluronic gel, periadventitial, 14 days after injury): 74% | SMC growth in cell assays, in words [2]: inhibit SMC growth

CO[C@H]1C[C@@H]2CC[C@@H](C)[C@@](O)(O2)C(=O)C(=O)N2CCCC[C@H]2C(=O)O[C@H]([C@H](C)C[C@@H]2CC[C@@H](O)[C@H](OC)C2)CC(=O)[C@H](C)/C=C(\C)[C@@H](O)[C@@H](OC)C(=O)[C@H](C)C[C@H](C)/C=C/C=C/C=C/1C [Rapamycin]
inhibition at 0.2 µM [3]: > 50% | inhibition at 0.2 µM [4]: > 50%

CC(=O)[C@]1(O)Cc2c(O)c3c(c(O)c2[C@@H](O[C@H]2C[C@H](N)[C@H](O)[C@H](C)O2)C1)C(=O)c1ccccc1C3=O [idarubicin, (7S,9S)-9-Acetyl-7-[(3-amino-2,3,6-trideoxy-α-L-lyxo-hexapyranosyl)oxy]-7,8,9,10-tetrahydro-6,9,11-trihydroxy-5,12-naphtacenedione]
increase of lumen size [1, 9]: 45% | reduction of intimal hyperplasia [1, 9]: 80% | effect on intimal hyperplasia (intima/media), in words [1, 10]: effectively reduced; also recorded: inhibitory effect; also recorded: inhibits intimal hyperplasia in a dose-dependent manner | effect on re-endothelialization (CD31 staining), in words [1, 10]: not affected; also recorded: absence of idarubicin's effect; also recorded: preserves and promotes re-endothelialization; also recorded: no substantial impairment; also recorded: no significant effect | reduction of intimal hyperplasia ([1]; local application, dose not stated at the place (Example 3)): 70% | SMC versus EC proliferation, dose response (in words) ([5]; approximately 50 nM to 1000 nM): impedes SMC proliferation to a significantly greater extent than ECs; also recorded: differentially inhibited SMC proliferation with a lesser effect on ECs | inhibition of smooth muscle cell proliferation [5, 11]: up to 80% | SMC versus EC preference in counter-screen of EC proliferation, in words ([6]; counter-screen): preferentially inhibits SMCs over ECs | inhibition of endothelial cell proliferation [6, 11]: less than 40% | cytotoxicity in surrounding tissues ([7]; highest dose 1 mg/mL in pluronic gel): slight cytotoxicity | cytotoxicity in surrounding tissues ([7]; lowest dose 0.2 mg/mL in pluronic gel): without showing cytotoxicity | inhibition of intimal hyperplasia ([7]; lowest dose 0.2 mg/mL in pluronic gel (data not shown)): > 70% | cytotoxicity in surrounding tissues [7, 12]: without showing cytotoxicity | inhibition of intimal hyperplasia [7, 12]: > 70%

Oc1ccc(C=Cc2cc(O)cc(O)c2)cc1 [resveratrol]
inhibition of the intima/media ratio ([1]; resveratrol 500 μg in 200 μL pluronic gel, perivascular, 14 days after injury): 84% | SMC growth in cell assays, in words [2]: inhibit SMC growth
